# Data published in ChEMBL document CHEMBL3046525, “In vitro antiproliferative activity of 11-aminoalkylamino-substituted 5H-indolo[2,3-b]quinolines; improving activity of neocryptolepines by installation of ester substituent” (Med Chem Res, 2013).
# Tested on: not listed separately
# Experiment: Selectivity ratio of IC50 for mouse BALB/3T3 cells to IC50 for human HCT116 cells
# Assay type: cell-based, HCT-116
# Conditions: BALB/3T3 cells versus HCT116 cells, read-out: Ratio IC50
row,Structure (SMILES),selectivity ratio
1,COC(=O)c1ccc2nc3n(C)c4ccc(C(=O)OC)cc4c(NCCCN)c-3c2c1,28
2,COC(=O)c1ccc2nc3n(C)c4ccccc4c(N4CCCN(C)CC4)c-3c2c1,4
3,COC(=O)c1ccc2c(c1)c(NCCCN)c1c3cc(Br)ccc3nc-1n2C,4
4,COC(=O)c1ccc2nc3n(C)c4ccccc4c(N4CCOCC4)c-3c2c1,4
5,COC(=O)c1ccc2nc3n(C)c4ccccc4c(NCCN(C)C)c-3c2c1,4
6,COC(=O)c1ccc2c(c1)c(NCCCN)c1c3ccccc3nc-1n2C,4
7,COC(=O)c1ccc2nc3n(C)c4ccc(Br)cc4c(NCCCN)c-3c2c1,4
8,COC(=O)c1ccc2nc3n(C)c4ccccc4c(NCCCCN)c-3c2c1,4
9,COC(=O)c1ccc2nc3n(C)c4ccccc4c(NCCCN(C)C)c-3c2c1,4
10,COC(=O)c1ccc2nc3n(C)c4ccccc4c(NCCCO)c-3c2c1,4
11,COC(=O)c1ccc2nc3n(C)c4ccccc4c(NCCCN)c-3c2c1,4
12,Cn1c2nc3ccc(Br)cc3c-2c(NCCCN)c2cc(Cl)ccc21,4

# Tested on: BALB/3T3
# Experiment: Cytotoxicity against Mus musculus (mouse) BALB/3T3 cells after 72 hr by SRB assay
# Assay type: cell-based
# Conditions: BALB/3T3, 72 h
row,Structure (SMILES),IC50
1,COC(=O)c1ccc2nc3n(C)c4ccc(Br)cc4c(NCCCN)c-3c2c1,833 nM

# Tested on: MV4-11
# Experiment: Antiproliferative activity against Homo sapiens (human) MV411 cells after 72 hr by MTT assay
# Assay type: functional, cell-based
# Conditions: MV4-11, 72 h
row,Structure (SMILES),IC50
1,Cn1c2nc3ccc(C(=O)O)cc3c-2c(NCCCN)c2ccccc21,> 25000 nM
2,CN1CCCN(c2c3c4ccccc4nc-3n(C)c3ccccc23)CC1,7170 nM
3,CN(C)CCCNc1c2c3cc(C(=O)O)ccc3nc-2n(C)c2ccccc12,> 25000 nM
4,Cn1c2nc3ccccc3c-2c(NCCCO)c2ccccc21,170 nM
5,COC(=O)c1ccc2nc3n(C)c4ccc(Br)cc4c(NCCCN)c-3c2c1,56 nM
6,Cn1c2nc3ccccc3c-2c(NCCCCN)c2ccccc21,100 nM
7,Cn1c2nc3ccc(C(=O)O)cc3c-2c(NCCCO)c2ccccc21,> 25000 nM
8,CN(C)CCNc1c2c3cc(C(=O)O)ccc3nc-2n(C)c2ccccc12,9280 nM

# Tested on: A549
# Experiment: Antiproliferative activity against Homo sapiens (human) A549 cells after 72 hr by SRB assay
# Assay type: functional, cell-based
# Conditions: A549, 72 h
row,Structure (SMILES),IC50
1,COC(=O)c1ccc2nc3n(C)c4ccc(Br)cc4c(NCCCN)c-3c2c1,194 nM
